Assay results reported in patent publication US20230210999A1, “TARGETED PROTEASE DEGRADATION (TED) PLATFORM” (EUBULUS BIOTHERAPEUTICS INC., priority 2020, published 2023).
Like-named read-outs stand apart in the source and are kept apart here.

Legend:
Format in all cases: cell-based, human
MV4;11 cells = test: Cell proliferation experiment (Alamar blue, 72 h), MV4;11
In short: (§1)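 Single-cell suspensions from log-phase cultures, passaged at least 2 generations, are seeded into 96-well plates and given compound in complete medium. Following 72 h, fluorescence with Alamar blue is recorded and fitted for IC50.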

Daudi cells = test: Cell proliferation experiment, Daudi; settings: read-out: Inhibitory activity IC50 on Daudi
In short: as §1

MDA-MB-231 cells = test: Cell proliferation experiment, MDA-MB-231
In short: as §1

NCIH82 cells = test: Cell proliferation experiment, NCI-H82; settings: Homo sapiens, NCI-H82, NCI-H82 cells; read-out: Inhibitory activity IC50 on NCI-H82
In short: as §1

PC-3 = test: Cell proliferation experiment, PC-3
In short: as §1

[1] = Homo sapiens, MV4-11, MV4;11 cells, read-out: Inhibitory activity IC50 on MV4;11
[2] = Homo sapiens, Daudi, Daudi cells
[3] = Homo sapiens, MDA-MB-231, MDA-MB-231 cells, read-out: Inhibitory activity IC50 on MDA-MB-231
[4] = Homo sapiens, PC-3, PC-3 cells, read-out: Inhibitory activity IC50 on PC-3
[5] = PC-3 cells, read-out: Inhibitory activity IC50 on PC-3
[6] = MDA-MB-231 cells, read-out: Inhibitory activity IC50 on MDA-MB-231

Row | Structure (SMILES) | IC50 (MV4;11 cells; [1]) [nM] | IC50 (Daudi cells; [2]) [nM] | IC50 (MDA-MB-231 cells; [3]) [nM] | IC50 (NCIH82 cells) [nM] | IC50 (PC-3; [4]) [nM] | also measured
1 | CNC(=O)c1ccccc1Nc1nc(Nc2ccc(N3CCN(C(=O)N[C@H]4CC[C@@H](NCCC#Cc5ccc6c(c5)CN(C5CCC(=O)NC5=O)C6=O)CC4)CC3)cc2)ncc1Cl (some centres unmarked) [UB-181103] | < 10 | 10 to 100 | 100 to 1000 | 10 to 100 | 10 to 100 | 
2 | CNC(=O)c1ccccc1Nc1nc(Nc2ccc(N3CCN(C(=O)N[C@H]4CC[C@@H](NCCOCCC#Cc5cccc6c5CN(C5CCC(=O)NC5=O)C6=O)CC4)CC3)cc2)ncc1Cl (some centres unmarked) [UB-181078] | < 10 |  | 100 to 1000 | 100 to 1000 |  | IC50 (Daudi cells; Daudi cells): 10 to 100 nM; IC50 (PC-3; [5]): 10 to 100 nM
3 | CNC(=O)c1ccccc1Nc1nc(Nc2ccc(N3CCC(C(=O)N[C@H]4CC[C@@H](NCCC#Cc5cccc6c5CN(C5CCC(=O)NC5=O)C6=O)CC4)CC3)cc2)ncc1Cl (some centres unmarked) [UB-181186] | < 10 | 10 to 100 | 100 to 1000 | 10 to 100 | < 10 | 
4 | CC[C@@H]1C(=O)N(C)c2cnc(Nc3ccc(C(=O)N[C@H]4CC[C@H](NCCOCCC#Cc5cccc6c5CN(C5CCC(=O)NC5=O)C6=O)CC4)cc3)nc2N1C1CCCC1 (some centres unmarked) [UB-181144] | < 10 | 10 to 100 | 10 to 100 |  | 10 to 100 | 
5 | NC(=O)c1ccccc1Nc1nc(Nc2ccc(N3CCN(C(=O)N[C@H]4CC[C@@H](NCCC#Cc5cccc6c5CN(C5CCC(=O)NC5=O)C6=O)CC4)CC3)cc2)ncc1Cl (some centres unmarked) [UB-181190] | < 10 | 10 to 100 | 10 to 100 | 10 to 100 | 10 to 100 | 
6 | CNC(=O)c1ccccc1Nc1nc(Nc2ccc(N3CCN(C(=O)NCCCCOCCCCNCC(=O)Nc4ccc5c(c4)CN(C4CCC(=O)NC4=O)C5=O)CC3)cc2)ncc1Cl (centres unmarked) [UB-181049] | 10 to 100 | 10 to 100 | > 1000 | 10 to 100 | 100 to 1000 | 
7 | CC[C@@H]1C(=O)N(C)c2cnc(Nc3ccc(-c4cn([C@H]5CC[C@@H](NCCOCCC#Cc6cccc7c6CN(C6CCC(=O)NC6=O)C7=O)CC5)nn4)cc3)nc2N1C1CCCC1 (some centres unmarked) [UB-181154] |  |  |  |  |  | IC50 (MV4;11 cells; MV4;11 cells, read-out: Inhibitory activity IC50 on MV4;11): < 10 nM; IC50 (Daudi cells; Daudi cells): 100 to 1000 nM; IC50 (MDA-MB-231 cells; [6]): 100 to 1000 nM; IC50 (PC-3; [5]): 10 to 100 nM
8 | CNC(=O)c1ccccc1Nc1nc(Nc2ccc(N3CCN(C(=O)N[C@H]4CC[C@@H](NCCCC#Cc5ccc6c(c5)CN(C5CCC(=O)NC5=O)C6=O)CC4)CC3)cc2)ncc1Cl (some centres unmarked) [UB-181101] | < 10 | 10 to 100 | 100 to 1000 | 10 to 100 | 100 to 1000 | 
9 | CC[C@@H]1C(=O)N(C)c2cnc(Nc3ccc(C(=O)N[C@H]4CC[C@H](NCCOCCC#Cc5cccc6c5CN(C5CCC(=O)NC5=O)C6=O)CC4)cc3OC)nc2N1C1CCCC1 (some centres unmarked) [UB-181113] |  |  |  |  |  | IC50 (MV4;11 cells; Homo sapiens, MV4-11, read-out: Inhibitory activity IC50 on MV4;11): < 10 nM; IC50 (Daudi cells; Homo sapiens, Daudi): 10 to 100 nM; IC50 (MDA-MB-231 cells; Homo sapiens, MDA-MB-231, read-out: Inhibitory activity IC50 on MDA-MB-231): 10 to 100 nM; IC50 (PC-3; Homo sapiens, PC-3, read-out: Inhibitory activity IC50 on PC-3): 10 to 100 nM
10 | CC[C@@H]1C(=O)N(C)c2cnc(Nc3ccc(C(=O)NC4CCN(CCOCCN(C)CC(=O)Nc5cccc6c5CN(C5CCC(=O)NC5=O)C6=O)CC4)nc3)nc2N1C1CCCC1 (some centres unmarked) [UB-181171] | 10 to 100 | > 1000 | > 1000 |  | > 1000 | 
11 | CCNC(=O)C#Cc1ccc2c(c1)NC(=O)/C2=C(\Nc1ccc(CNCCOCCOCCOCCOCCC(=O)Nc2ccc3c(c2)CN(C2CCC(=O)NC2=O)C3=O)cc1)c1ccccc1 (centres unmarked) [UB-180957] | 10 to 100 | 100 to 1000 | > 1000 | 100 to 1000 | > 1000 | 
12 | CC[C@@H]1C(=O)N(C)c2cnc(Nc3ccc(-c4cn([C@H]5CC[C@@H](NCCOCCC#Cc6cccc7c6CN(C6CCC(=O)NC6=O)C7=O)CC5)nn4)cc3OC)nc2N1Cc1ccc(Cl)s1 (some centres unmarked) [UB-181145] | < 10 | < 10 | < 10 |  | < 10 | 
13 | CC[C@@H]1C(=O)N(C)c2cnc(Nc3ccc(C(=O)N[C@H]4CC[C@H](N(C)CCOCCC#Cc5cccc6c5CN(C5CCC(=O)NC5=O)C6=O)CC4)cc3)nc2N1C1CCCC1 (some centres unmarked) [UB-181176] | < 10 | 10 to 100 | 10 to 100 |  | 10 to 100 | 
14 | CC[C@@H]1C(=O)N(C)c2cnc(Nc3ccc(-c4cn([C@H]5CC[C@H](NCCOCCC#Cc6cccc7c6CN(C6CCC(=O)NC6=O)C7=O)CC5)nn4)cc3)nc2N1C1CCCC1 (some centres unmarked) [UB-181118] | < 10 | 100 to 1000 | 10 to 100 |  | 10 to 100 | 
15 | CC[C@@H]1C(=O)N(C)c2cnc(Nc3ccc(C(=O)N[C@H]4CC[C@@H](N(C)CCOCCC#Cc5cccc6c5CN(C5CCC(=O)NC5=O)C6=O)CC4)cc3)nc2N1C1CCCC1 (some centres unmarked) [UB-181175] | < 10 | 10 to 100 | 10 to 100 |  | 10 to 100 | 
16 | CC[C@@H]1C(=O)N(C)c2cnc(Nc3ccc(-c4cn([C@H]5CC[C@@H](NCCOCCC#Cc6cccc7c6CN(C6CCC(=O)NC6=O)C7=O)CC5)nn4)cc3)nc2N1C1CCCC1 (some centres unmarked) [UB-181099] | < 10 |  |  |  | 10 to 100 | IC50 (Daudi cells; Daudi cells): 10 to 100 nM; IC50 (MDA-MB-231 cells; [6]): 10 to 100 nM
17 | CC[C@@H]1C(=O)N(C)c2cnc(Nc3ccc(-c4cn(C5CCC(NCCOCCC#Cc6cccc7c6CN(C6CCC(=O)NC6=O)C7=O)CC5)nn4)cc3OC)nc2N1C1CCCC1 (some centres unmarked) [UB-180961] | < 10 | < 10 | < 10 |  | < 10 | 
18 | CC[C@@H]1C(=O)N(C)c2cnc(Nc3ccc(C(=O)NC4CCN(CCOCCN(C)CC(=O)Nc5cccc6c5CN(C5CCC(=O)NC5=O)C6=O)CC4)cc3)nc2N1C1CCCC1 (some centres unmarked) [UB-181143] | 10 to 100 | 100 to 1000 | 100 to 1000 |  | 100 to 1000 | 
19 | CC[C@@H]1C(=O)N(C)c2cnc(Nc3ccc(C(=O)N[C@H]4CC[C@@H](NCCOCCC#Cc5cccc6c5CN(C5CCC(=O)NC5=O)C6=O)CC4)cc3OC)nc2N1C1CCCC1 (some centres unmarked) [UB-180937] | < 10 | 10 to 100 | 10 to 100 |  | 10 to 100 | 
20 | CC[C@@H]1C(=O)N(C)c2cnc(Nc3ccc(C(=O)N[C@H]4CC[C@H](N(C)CCOCCC#Cc5cccc6c5CN(C5CCC(=O)NC5=O)C6=O)CC4)cc3OC)nc2N1C1CCCC1 (some centres unmarked) [UB-181178] | < 10 | < 10 | 10 to 100 |  | 10 to 100 | 
21 | CC[C@@H]1C(=O)N(C)c2cnc(Nc3ccc(C(=O)N[C@H]4CC[C@@H](NCCOCCC#Cc5cccc6c5CN([C@H]5CCC(=O)NC5=O)C6=O)CC4)cc3)nc2N1C1CCCC1 [UB-181170] | < 10 | 10 to 100 | 10 to 100 |  | 10 to 100 | 
22 | CC[C@@H]1C(=O)N(C)c2cnc(Nc3ccc(-c4cn([C@H]5CC[C@@H](N(CCOCCC#Cc6cccc7c6CN(C6CCC(=O)NC6=O)C7=O)C(=O)OCc6ccc(NC(=O)[C@H](CC(N)=O)NC(=O)[C@H](C)NC(=O)[C@H](C)NC(=O)CCCCCN7C(=O)C=CC7=O)cc6)CC5)nn4)cc3OC)nc2N1C1CCCC1 (some centres unmarked) [UB-181149] | 100 to 1000 | 100 to 1000 | 100 to 1000 |  | 100 to 1000 | 
23 | CC[C@@H]1C(=O)N(C)c2cnc(Nc3ccc(C(=O)N[C@H]4CC[C@@H](N(C)CCOCCC#Cc5cccc6c5CN(C5CCC(=O)NC5=O)C6=O)CC4)cc3OC)nc2N1C1CCCC1 (some centres unmarked) [UB-181177] | < 10 | 10 to 100 | < 10 |  | < 10 | 
24 | O=C1CCC(N2Cc3c(NC(=O)CCNCCOCCOCCNC(=O)[C@]4(Cc5cccc(Nc6nccs6)n5)CC[C@@H](Oc5cccc(Cl)c5F)CC4)cccc3C2=O)C(=O)N1 (some centres unmarked) [UB-181036] | > 1000 |  | > 1000 | > 1000 | > 1000 | 
25 | CC[C@@H]1C(=O)N(C)c2cnc(Nc3ccc(-c4cn([C@H]5CC[C@H](NCCOCCC#Cc6cccc7c6CN(C6CCC(=O)NC6=O)C7=O)CC5)nn4)cc3OC)nc2N1C1CCCC1 (some centres unmarked) [UB-181108] | < 10 | 10 to 100 | 10 to 100 |  | 10 to 100 | 
